Where “and” joins values, the source holds several entries; their conditions need not be identical. Equal entries are not always repeated. Where two headings read alike, the source gives them in different places.
Key:
C. albicans ATCC 90028 = test: Antifungal MIC assay (broth microdilution in YNB); format: cell-based, Candida albicans
Description: (§1) Yeast strains: Candida albicans (ATCC 90028, NCCLS 11), Cryptococcus neoformans (ATCC 208821, H99 type strain), Candida tropicalis (ATCC 750, type strain), Candida glabrata (ATCC 90030, NCCLS 84) and Cryptococcus deuterogattii (ATCC 32609, type strain) were obtained from the American Type Culture Collection (ATCC). Cryptococcus deuterogattii (CBS 7750), Candida auris (CBS 10913) and Candida auris (CBS 12373) were obtained from the CBS‐KNAW culture collection. The strains were maintained on glycerol/YPD (yeast extract‐peptone dextrose) broth (20:80 v/v) at −80 °C.
(§2) Antifungal minimum inhibitory concentration (MIC) assay: The cobalt complexes and antifungal control compounds were serially diluted in 50 μL of Yeast Nitrogen Broth (YNB; BD, Cat No. 233520 supplemented with 2 % glucose and 10 mM ammonium sulfate) two‐fold across the wells of non‐binding surface (NBS) 96‐well plates (Corning; Cat. No. 3641). Plates were set up in quadruplicate for each strain tested, and two biological replicates were conducted on separate assay days.
(§3) Yeast strains were cultured from glycerol onto YPD (Becton Dickinson 242720) agar at 30 °C for 72 h. For each strain, a minimum of five single colonies were taken from the agar plate and dissolved in sterile water and adjusted to form a yeast suspension of 1×10^6 to 5×10^6 CFU mL^−1 (as determined by OD530). The suspension was subsequently diluted into YNB media, and added to each well of the compound containing plates, giving a final cell density of 2.5×10^3 CFU mL^−1 and a total volume of 100 μL. Plates were covered and incubated at 35 °C for 36 h without shaking.
(§4) Growth inhibition of all strains was determined visually where the MIC was recorded as the lowest compound concentration with no visible growth. Fluconazole (Sigma F8929), ketoconazole (Sigma K1003) and micafungin (Sigma SML2288) were used as internal positive inhibitor controls for every strain tested.

C. auris CBS 10913 = test: Antifungal MIC assay (broth microdilution in YNB); format: cell-based, Candida auris
Description: as §1, §2, §3, §4

C. auris CBS 12373 = test: Antifungal MIC assay (broth microdilution in YNB); format: cell-based, Candida auris
Description: as §1, §2, §3, §4

C. glabrata ATCC 90030 = test: Antifungal MIC assay (broth microdilution in YNB); format: cell-based, Candida glabrata
Description: as §1, §2, §3, §4

C. tropicalis ATCC 750 = test: Antifungal MIC assay (broth microdilution in YNB); format: cell-based, Candida tropicalis
Description: as §1, §2, §3, §4

[1] = system: C. neoformans ATCC 208821; test: Antifungal MIC assay (broth microdilution in YNB); format: cell-based, Cryptococcus neoformans
Description: as §1, §2, §3, §4

human red blood cells = test: Haemolysis assay; format: cell-based; settings: 1 h at 37 °C
Experimental: Haemolysis assay: Human whole blood (Australian Red Cross Blood Service) was washed three times with three volumes of 0.9 % NaCl and resuspended in a concentration of 0.5×10^8 cells mL^−1, determined by manual cell count in a Neubauer haemocytometer. Washed cells were added to compound containing plates (384‐well round bottom polypropylene plates, Corning 3657) for a final volume of 50 μL, shaken for 10 min and incubated for 1 h at 37 °C, without shaking. After incubation, the plates were centrifuged at 1000 g for 10 min to pellet cells and debris, 25 μL of the supernatant was then transferred to reading plates (384‐well flat bottom polystyrene plates, Corning CLS3680), with haemolysis determined by measuring the supernatant absorbance at […] (OD405), using cells without inhibitors as negative control and cells with 1 % Triton X‐100 (Sigma T8787) as positive control. HC10 and HC50 (concentration at which 10 and 50 % haemolysis is induced, respectively) were calculated by curve fitting the inhibition values vs. log(concentration) of four replicates using a sigmoidal dose–response function with variable fitting values for top, bottom and slope using Prism 8. Melittin (Sigma M2272) was used as positive haemolytic control on each plate. Human ethics approval from the University of Queensland Institutional Human Research Ethics Committee was obtained for use of human blood for haemolysis studies (approval number 201400003).

[2] = system: Pseudomonas aeruginosa ATCC 27853; test: CO-ADD bacterial broth microdilution MIC assay; format: cell-based; settings: CAMHB, 37 °C, 18 h, ≥ 80% inhibition
Experimental: (§5) CO-ADD High Throughput Screening
(§6) Bacterial broth microdilution minimum inhibitory concentration (MIC) assay Bacterial strains were cultured in Cation-adjusted Mueller Hinton broth (CAMHB; Bacto Laboratories 212322) at 37 °C overnight. A sample of each culture was then diluted 40-fold in fresh CAMHB and incubated at 37 °C for 1.5-3 h. The resultant mid-log phase cultures were diluted with CAMHB (CFU/mL measured by OD600), then added to each well of the compound-containing plates (384-well non-binding surface (NBS) plates; Corning CLS3640), giving a cell density of 5 × 10^5 CFU/mL and a total volume of 50 µL. Plates were covered and incubated at 37 °C for 18 h without shaking. Inhibition of bacterial growth was determined measuring absorbance at 600 nm (OD600), using media only as negative control and bacteria without inhibitors as positive control. MIC values were determined as the lowest concentration at which the growth was inhibited at ≥ 80%. Colistin sulfate (Sigma C4461) and vancomycin HCl (Sigma 861987) were used as positive inhibitor controls on each plate for Gram-negative and Gram-positive bacteria, respectively.
(§7) Figure S1. 1H NMR (400 MHz) of [Co(ATS)(DMAP)2]NO3 (3) in DMSO-d6.
(§8) (1 picture or pasted object on this page, not shown here)

[3] = system: Staphylococcus aureus ATCC 43300 (MRSA); test: CO-ADD bacterial broth microdilution MIC assay; format: cell-based; settings: CAMHB, 37 °C, 18 h, ≥ 80% inhibition
Experimental: as §5, §6, §7, §8

[4] = system: Klebsiella pneumoniae ATCC 700603 (K6; ESBL SHV-18); format: cell-based; settings: 18 h
Experimental: as §5, §6, §7, §8

[5] = range of MICs, n=8, 35 °C, 36 h, visual, read-out: MIC C. albicans ATCC 90028
[6] = range of MICs, n=8, 35 °C, 36 h, visual, read-out: MIC C. auris CBS 12373
[7] = range of MICs, n=8, 35 °C, 36 h, visual, read-out: MIC C. glabrata ATCC 90030
[8] = range of MICs, n=8, 35 °C, 36 h, visual, read-out: MIC C. tropicalis ATCC 750
[9] = range of MICs, n=8, 35 °C, 36 h, visual, read-out: MIC C. neoformans ATCC 208821
[10] = range of MICs, n=8, 35 °C, 36 h, visual

Row | SMILES | MIC Candida albicans ATCC 90028 (C. albicans ATCC 90028; Table S1) [µg/mL] | MIC (C. albicans ATCC 90028; [5]) [µM] | MIC Candida auris CBS 10913 (C. auris CBS 10913; Table S1) [µg/mL] | MIC Candida auris CBS 12373 (C. auris CBS 12373; Table S1) [µg/mL] | MIC (C. auris CBS 12373; [6]) [µM] | MIC Candida glabrata ATCC 90030 (C. glabrata ATCC 90030; Table S1) [µg/mL] | MIC (C. glabrata ATCC 90030; [7]) [µM] | MIC Candida tropicalis ATCC 750 (C. tropicalis ATCC 750; Table S1) [µg/mL] | MIC (C. tropicalis ATCC 750; [8]) [µM] | MIC Cryptococcus neoformans ATCC 208821 ([1]; Table S1) [µg/mL] | MIC [1, 9] [µM] | Haem HC10 (concentration at which 10 % haemolysis is reached) (human red blood cells) | MIC Pa (Pseudomonas aeruginosa ATCC 27853) [2] [µg/mL] | MIC Sa (Staphylococcus aureus ATCC 43300, MRSA) [3] [µg/mL] | MIC C. auris CBS 10913 (C. auris CBS 10913; [10]) [µM] | MIC Kp (Klebsiella pneumoniae ATCC 700603) [4] [µg/mL] | other results
1 | O=[N+]([O-])[O-].O=[N+]([O-])[O-].[Co+2] [Co, Co(NO3)2, reference compound] | > 29.1 | >100 | > 29.1 | 29.1 | 100 | > 29.1 | >100 | > 29.1 | >100 | > 29.1 | >100 | >100 µM | > 32 | > 32 | – | – | MIC (C. auris CBS 10913; range of MICs, n=8, 35 °C, 36 h, visual, read-out: MIC C. auris CBS 10913): >100 µM; MIC Kp (Klebsiella pneumoniae ATCC 700603) ([4]; CAMHB, 37 °C, ≥ 80% inhibition): > 32 µg/mL
2 | CC1=[N+]2N=C(N)[S][Co-3]23([n+]2ccc(N(C)C)cc2)([n+]2ccc(N(C)C)cc2)[S]C(N)=N[N+]3=C1C.O=[N+]([O-])[O-] [Compound 3, [Co(ATS)(DMAP)2]NO3] | 0.93 | 1.56 | 0.23 to 0.46 | 0.46 | 0.78 | 29.7 | 50 | 0.23 to 0.46 | – | 0.46 to 0.93 | – | 73.1 µM and 73.1 ± 20.4 µM | > 32 | > 32 | 0.39 to 0.78 | > 32 | MIC C. tropicalis ATCC 750 (C. tropicalis ATCC 750; [10]): 0.39 to 0.78 µM
3 | O=[N+]([O-])[O-].[NH3+][Co-3]123([NH3+])[O]c4c(F)cccc4C=[N+]1c1ccccc1[N+]2=Cc1cccc(F)c1[O]3 [Compound 7, [Co(3F‐salophen)(NH3)2]NO3] | 23.9 to 47.8 | – | 0.37 to 0.75 | 23.9 | 50 | 47.8 | 100 | 47.8 | 100 | 47.8 | 100 | >100 µM | > 32 | > 32 | 0.78 to 1.56 | > 32 | MIC C. albicans ATCC 90028 (C. albicans ATCC 90028; [10]): 50 to 100 µM; MIC C. auris CBS 10913, lowest value ('as low as') (C. auris CBS 10913; lower end of MIC range): 0.78 µM
4 | CC(=N\NC(N)=S)/C(C)=N/NC(N)=S [Compound L1] | – | – | – | – | – | – | – | – | – | – | – | >100 µM | – | – | – | > 32 | MIC (C. albicans ATCC 90028; Candida albicans, ATCC90028, Table S1, read-out: MIC Candida albicans ATCC 90028): > 23.2 µg/mL; MIC (C. albicans ATCC 90028; Candida albicans, ATCC90028, range of MICs, n=8, 35 °C, 36 h, visual, read-out: MIC C. albicans ATCC 90028): > 100 µM; MIC (C. auris CBS 10913; Candidozyma auris, CBS10913, Table S1, read-out: MIC Candida auris CBS 10913): > 23.2 µg/mL; MIC (C. auris CBS 10913; Candidozyma auris, CBS10913, range of MICs, n=8, 35 °C, 36 h, visual, read-out: MIC C. auris CBS 10913): > 100 µM; MIC (C. auris CBS 12373; Candidozyma auris, CBS12373, Table S1, read-out: MIC Candida auris CBS 12373): > 23.2 µg/mL; MIC (C. auris CBS 12373; Candidozyma auris, CBS12373, range of MICs, n=8, 35 °C, 36 h, visual, read-out: MIC C. auris CBS 12373): > 100 µM; MIC (C. glabrata ATCC 90030; Nakaseomyces glabratus, ATCC90030, Table S1, read-out: MIC Candida glabrata ATCC 90030): > 23.2 µg/mL; MIC (C. glabrata ATCC 90030; Nakaseomyces glabratus, ATCC90030, range of MICs, n=8, 35 °C, 36 h, visual, read-out: MIC C. glabrata ATCC 90030): > 100 µM; MIC (C. tropicalis ATCC 750; Candida tropicalis, ATCC750, Table S1, read-out: MIC Candida tropicalis ATCC 750): > 23.2 µg/mL; MIC (C. tropicalis ATCC 750; Candida tropicalis, ATCC750, range of MICs, n=8, 35 °C, 36 h, visual, read-out: MIC C. tropicalis ATCC 750): > 100 µM; MIC ([1]; Cryptococcus neoformans, ATCC208821, Table S1, read-out: MIC Cryptococcus neoformans ATCC 208821): > 23.2 µg/mL; MIC ([1]; Cryptococcus neoformans, ATCC208821, range of MICs, n=8, 35 °C, 36 h, visual, read-out: MIC C. neoformans ATCC 208821): > 100 µM; MIC ([2]; Pseudomonas aeruginosa, ATCC27853, read-out: MIC Pa (Pseudomonas aeruginosa ATCC 27853)): > 32 µg/mL; MIC ([3]; Staphylococcus aureus, read-out: MIC Sa (Staphylococcus aureus ATCC 43300, MRSA)): > 32 µg/mL
